# Data as given in publication PMC3997483, “Aminostyrylbenzofuran Directly Reduces Oligomeric Amyloid-β and Reverses Cognitive Deficits in Alzheimer Transgenic Mice” (PLoS ONE, 2014).
# What was measured:
# [1] = Dissociation constant (pKa), GLpKa titration; assay type: physicochemical; details: aqueous 150 mM NaCl solution
# Protocol: (§1) Dissociation constant (pKa) and partition coefficient (log P) Dissociation constant (pKa) and partition coefficient (log P) of KMS88009 were measured by a pH-method using GLpKa (Sirius, UK). pKa was measured by titrating KMS88009 solution and calculated from the shape of the titration curve. […] Log P of KMS88009 was calculated by a two-phase acid-base titration in a mixture of water and octanol. Three separate potentiometric titrations of KMS88009 were carried out at 23 ℃ in various octanol-water (0.15 M KCl) mixtures (0.5% to 50% octanol). The initial pH was adjusted to 10.0 with standardized 0.5 M NaOH prior to each titration. Titrations were performed with standardized 0.5 M HCl to pH 1.8. The pKa and log P values were calculated using RefinementPro software (Sirius, UK). Values are expressed as the mean ± SD of 3 independent experiments.
# [2] = Partition coefficient (log P), octanol-water titration; assay type: physicochemical; details: 23 ℃
# Protocol: as §1
structure (smiles),measurement,setting,value
"COc1ccc2cc(C=Cc3ccc(N(C)C)cc3)oc2c1 [KMS88009, 6-methoxy-2-(4-dimethylaminostyryl) benzofuran]",pKa,[1],1.5 ± 0.12
same,logP,[2],2.4 ± 0.19
